Holding throughout (assay type): cell-based
In series [1] the test system is Total Cell Line. Put plainly: Average oxaliplatin AUC over all colorectal cancer cell lines. On the procedure:
(§1) Four hours after the medium change, the cells were treated with oxaliplatin, 5-FU, Irinotecan, and folinic acid. Five days after drug treatment, intracellular ATP expression was determined using the ATPlite assay kit (PerkinElmer), and the data were expressed in terms of cell viability, IC50, and AUC.
(§2) As the standard for confirming that cells are sensitive to the drug, the response of the cells to the drug was assumed to be 100%, and the luminescence value of surviving cells after drug treatment was analyzed and compared with the quantified drug response value.
(§3) Based on the assumption that the factor that increases the resistance of the organoids to oxaliplatin is an activator or inhibitor that changes the phenotype, the organoids prepared by excluding some or all of activators and inhibitors as shown in Table 4 below were treated with oxaliplatin.
(§4) In order to confirm reduced resistance to oxaliplatin, ECT116, RKO, SW620, and LS147T cell lines, which are highly sensitive to oxaliplatin, and HT29, HTC15, CoLo205, and Lovo cell lines, which are low sensitive to oxaliplatin, were used.
(§5) When the above results were combined with the results shown by cell lines with high sensitivity to oxaliplatin and cell lines with low sensitivity to oxaliplatin, the result data shown in FIGS. 23 and 24 and Tables 5 to 7 below were obtained.

For series [2], the system named is Sensitive Cell Line (HCT116, RKO, SW620, LS147T). Put plainly: Average oxaliplatin AUC over sensitive colorectal cancer cell lines. On the procedure:
as §1, §2, §3, §4, §5

The subject of series [3] is Resistant Cell Line (HT29, HTC15, CoLo205, Lovo). Put plainly: Average oxaliplatin AUC over resistant colorectal cancer cell lines. How it is done: as §1, §2, §3, §4, §5
Series [4] concerns 166T colorectal cancer patient-derived organoids. Nature of the series: Cell viability after oxaliplatin, 2D and 3D culture of patient-derived organoids. The note with it: for cell viability, Ex1 medium compared with control (CRC): FIGS. 26 and 27. On the procedure: as §1
In order to evaluate the difference between 2D culture and 3D culture performed using the above medium compositions, 166T CoLvM patient-derived organoids were cultured under 2D culture conditions and 3D culture conditions.

Series [5] deals with RKO cells. Put plainly: ATPlite cell viability after oxaliplatin, RKO cells in organoid culture media. How it is done:
(§6) Advanced DMEM/F12+++ (hereinafter referred to as “Ad/DF+++”) was used to produce colorectal cancer organoids. Ad/DF+++ was refrigerated at 4° C. until use, and was used in a cold state during cell washing. Ad/DF+++ medium containing the reagents shown in Table 1 below along with Ad/DF 1× (Gibco) was prepared.
After preparing the Ad/DF+++ medium containing the above reagents, an appropriate amount of Matrigel (Corning #356231) was added so that the ratio between Matrigel and cells suspended in the Ad/DF+++ medium was 7:3. Then, the cells were plated on low attachment well plates at an appropriate density. The density and the type and number of well plates were determined according to the characteristics of each cell type. The medium was prepared according to the composition shown in Table 2 below, and the cells were cultured (expanded) until the required level was reached while the medium was replaced every 3 to 4 days.
If the organoids were expanded as needed for the experiment, the medium was carefully removed, taking care not to touch the Matrigel. The cells were separated from the Matrigel by pipetting about 20 times with 1 ml of cold Ad/DF+++. The cells in 1 to 4 wells per 6-well plate were collected in one 50 ml tube. If cells are collected from more than 4 wells into one tube, the Metrigel may not be washed properly. For this reason, the cells were placed in several tubes. […] After suspending the pellet in Ad/DF+++, the cells were counted and diluted with medium according to the required number of cells. […]
as §1
As the standard for confirming that cells are sensitive to the drug, the response of the cells to the drug was assumed to be 100%, and the luminescence value of surviving cells after drug treatment was analyzed and compared with the quantified drug response value. […]

For series [6], the system named is HCT15 cells. Put plainly: ATPlite cell viability after oxaliplatin, HCT15 cells in organoid culture media. On the procedure:
as §6
After preparing the Ad/DF+++ medium containing the above reagents, an appropriate amount of Matrigel (Corning #356231) was added so that the ratio between Matrigel and cells suspended in the Ad/DF+++ medium was 7:3. Then, the cells were plated on low attachment well plates at an appropriate density. The density and the type and number of well plates were determined according to the characteristics of each cell type. […]
If the organoids were expanded as needed for the experiment, the medium was carefully removed, taking care not to touch the Matrigel. […] After suspending the pellet in Ad/DF+++, the cells were counted and diluted with medium according to the required number of cells. […]
Four hours after the medium change, the cells were treated with oxaliplatin, 5-FU, Irinotecan, and folinic acid. Five days after drug treatment, intracellular ATP expression was determined using the ATPlite assay kit (PerkinElmer), and the data were expressed in terms of cell viability, IC50, and AUC. […]

Take `O=C1[O][Pt]2([NH][C@@H]3CCCC[C@H]3[NH]2)[O]C1=O` [oxaliplatin]: the EX1_AUC is on record as 408.05 in series [1] (average over total cell lines, Ex1 medium); 396.08 in series [2] (average over sensitive cell lines, Ex1 medium (inhibitors and activators)); 420.02 in series [3] (average over resistant cell lines, Ex1 medium). In addition, the EX2_AUC is given as 384.32 in series [1] (average over total cell lines, Ex2 medium); 347.78 in series [2] (average over sensitive cell lines, Ex2 medium (no inhibitors, no activators)); 420.86 in series [3] (average over resistant cell lines, Ex2 medium). For the same compound, the normal_AUC in series [1] (average over total cell lines, normal cell-line culture) worked out at 330.83; in series [2] (average over sensitive cell lines, normal cell-line culture), 274.55; in series [3] (average over resistant cell lines, normal cell-line culture), 391.80. Moreover, the “EX1 − EX2 (AUC difference)” value in series [1] (total cell lines) is given as 23.73; in series [2] (sensitive cell lines) it was 48.30; in series [3] (resistant cell lines) it was −0.85. Moreover, the “sensitivity to oxaliplatin, Ex2 compared with Ex1” value in series [2] (cell lines with high sensitivity, FIG. 23) is “higher in Ex2 without both inhibitors and activators than in Ex1”; in series [3] (cell lines with low sensitivity, FIG. 24), “no difference in sensitivity to oxaliplatin between Ex1 and Ex2”. In addition, the “cell viability, Ex2 medium compared with control” value in series [4] (2D and 3D culture) is “cell viabilities similar to those of the control group”. For the same compound, the “cell viability, Ex1 medium compared with control (CRC)” value in series [4] (2D culture) is listed as “cell viability similar to that of the control (CRC) cell line”; in series [4] (3D culture) it was “higher cell viability than that of the control (CRC) cell line”. The “AUC value, Ex1 to Ex4 compared” value was “the lowest in the organoid culture conditions of Ex2” in series [5] (FIG. 6) and “decreased under the organoid culture conditions of Ex2” in series [6] (FIG. 17). In series [5] (FIG. 7), the “IC50 value, Ex2 compared with Ex1” value is “significantly lower in Ex2 than in Ex1”. The “cell viability versus oxaliplatin concentration” value in series [5] (MEM control, Ex1, Ex2, FIG. 8) is recorded as “fastest decrease in cell viability, followed by Ex2”. Also, in series [6] (Ex2 and Ex4, log [oxaliplatin] value 2, FIG. 18), the cell viability is at least 50%.

The values are drawn from patent publication US20250102494A1, “COMPOSITION FOR PREDICTING OXALIPLATIN DRUG EFFICACY, AND USE THEREOF” (SAMSUNG LIFE PUBLIC WELFARE FOUNDATION, priority 2022, published 2025).
